Data taken from patent US20240102016A1, “APPLICATION OF VEGFR GENE EXPRESSION INHIBITOR IN PREPARING PREPARATION OR AS PREPARATION FOR TREATING PSORIASIS” (priority 2022, published 2024).

Key:
Format in all cases: in vivo
[1] = test system: RASGRP1+T cells and IL-17A+T cells; experiment: Flow cytometry of RASGRP1+T cells and IL-17A+T cells in skin tissues of psoriatic mice; settings: skin smeared with SU5205
Source text: (§1) In the embodiment of the disclosure, psoriatic mice coated with VEGFR inhibitors are constructed as follows: dissolving the VEGFR inhibitor SU5205 in dimethyl sulfoxide (DMSO) solution to prepare stock solution, diluting the stock solution with cyclodextrin, and coating the stock solution with a concentration of […] (referred to a daily dosage per kilogram of body weight of the psoriatic mice) on the psoriatic mice. 7-8-week wild-type mice are taken with back hair shaved and an exposed skin area of 2 cm×2 cm. 150 μL of the VEGFR inhibitor solution is coated on the skin surface. The normal control mice are coated with control reagent (with 150 μL of DMSO and cyclodextrin). The psoriatic mice and the normal control mice are respectively coated with Imiquimod (IMQ) cream or control reagent VAS on the exposed skin in 4 h later of the above operation.
(§2) In the embodiment of the disclosure, the psoriatic mice subcutaneously injected with VEGF are constructed as follows: dissolving VEGF165 protein in DMSO solution to prepare stock solution, diluting the stock solution with cyclodextrin, and smearing the mice with the stock solution with a concentration of […]. 7-8-week wild-type mice are taken with back hair shaved and an exposed skin area of 2 cm×2 cm. 100 μL of the VEGF165 solution is injected subcutaneously the skin surface of the mice. […]

[2] = test system: IMQ-induced psoriatic mice; experiment: H&E staining of skin sections and PASI scores in IMQ-induced psoriatic mice; settings: skin smeared with SU5205, 10 kg/kg/d, 150 μL, 4 h before IMQ cream; compared with the IMQ-induced mice
Source text: as §1, §2

[3] = test system: RASGRP1 downstream pathway; experiment: Western blot of RASGRP1 downstream pathway proteins in skin tissues of psoriatic mice; settings: skin smeared with SU5205; compared with the IMQ-induced mice
Source text: as §1
In the embodiment of the disclosure, the psoriatic mice subcutaneously injected with VEGF are constructed as follows: dissolving VEGF165 protein in DMSO solution to prepare stock solution, diluting the stock solution with cyclodextrin, and smearing the mice with the stock solution with a concentration of […]. 7-8-week wild-type mice are taken with back hair shaved and an exposed skin area of 2 cm×2 cm. 100 μL of the VEGF165 solution is injected subcutaneously the skin surface of the mice. The normal control mice are injected with control reagent subcutaneously (with 100 μL of DMSO and cyclodextrin). The psoriatic mice subcutaneously injected with VEGF165, and the normal control mice are respectively smeared IMQ cream or control reagent VAS on the exposed skin in 4 h later of the injections.

O=C1Nc2ccccc2/C1=C/c1ccc(F)cc1 [SU5205]
IL-17A+T cells in skin tissues [1]: decrease significantly
Rasgrp1+T cells in skin tissues [1]: decrease significantly
psoriasis phenotypes (dorsal skin thickness, erythema, scaling; H&E staining and PASI scores) [2]: significantly reduced
active protein level of IL-1β in skin tissues [3]: significantly lower
active protein level of NF-κB in skin tissues [3]: significantly reduced
active protein level of phosphorylated AKT in skin tissues [3]: significantly reduced
